{
  "source": "patent US20220378715A1",
  "about": "“USE OF CANNABIDIOL PREPARATIONS IN THE TREATMENT OF ABSENCE EPILEPSY” (GW Research Limited, priority 2019, published 2022)",
  "type_in_all_cases": "in vivo, rat",
  "key": {"WAG/Rij rats [1]": {"tested_on": "WAG/Rij rats", "experiment": "EEG recording of spike wave discharges (SWDs), established absence seizures", "conditions": "10 and 100 mg/Kg i.p. twice daily, 14 days; vs control (vehicle); ANOVA across groups; FIG. 2A", "procedure": "The effects of botanically derived purified CBD (>98%) (bCBD) and synthetic CBD (sCBD) at 10 and 100 mg/Kg, i.p. twice daily, for both drugs, was assessed in this animal model, by EEG-recordings and behavioural tests.\nWAG/Rij rats were treated with bCBD or sCBD (10 and 100 mg/Kg, i.p. twice daily, for both drugs) over a chronic test period of at least 14 days.\nDrug treatment was started at about 6 months of age (n=10 for every dose and drug group) and continued for 14 consecutive days, when experimental tests were performed (treatment was also continued during the experimental procedure phase. Age-matched control (vehicle) WAG/Rij rats (n =10) were kept under the same housing conditions over the same period of time with vehicle (1:1:18, Ethanol:kolliphor HS15:saline; i.p.).\nWAG/Rij rats (n=10) underwent 2 EEG-recording periods in 2 consecutive days (one session per day). Every recording session lasted 3 hours and was performed 1 hour after drug administration. […]\nAll animals were allowed at least 1 week of recovery and handled twice a day. […] The blinded quantification of absence seizures was based on the number and the duration of EEG Spike Wave Discharges (SWDs).\nAll statistical procedures were performed using GraphPad Prism 6.0 (GraphPad Software, Inc., La Jolla, CA, USA). EEG recordings were subdivided into 30-min epochs, and the duration and number of SWDs were evaluated separately."}, "WAG/Rij rats [2]": {"tested_on": "WAG/Rij rats", "experiment": "Forced swimming test (FST)", "conditions": "for immobility time: sub-chronic, vs control", "procedure": "(§1) To test the effects bCBD and sCBD on epileptic comorbidities, separate groups (n=10) of treated and vehicle WAG/Rij rats at 6 months of age were subjected to several behavioural tests (see below—cohort 2).\n(§2) All behavioural tests were performed 1-hour post-dose in the morning. All experimental groups were subjected to a single test per day. […].\nThe FST, is currently the most reliable method to rapidly screen compounds for antidepressant activity in rodents; we used an FST protocol previously standardized in our laboratories for WAG/Rij rats.\nBriefly, rats were placed individually for 6 min into a glass cylinder (height 47 cm, diameter 38 cm) filled with 38 cm of water maintained between 23° C. and 25° C. The total duration of immobility (immobility time) was recorded during the last 4 min of a 6-min testing period. The criterion for immobility and passive swimming (immobility time) was floating vertically in the water while making only those movements essential to keep the head above the surface of the water, which is directly proportional to depressive-like behaviour. At the end of the FST, rats were removed and dried with a towel before being returned to their home cage. Mean swimming velocity and total distance moved were also measured and examined for every experimental group in order to check for any obvious locomotor impairment."}, "WAG/Rij rats [3]": {"tested_on": "WAG/Rij rats", "experiment": "Elevated plus maze (EPM)", "conditions": "10 and 100 mg/Kg; p=0.67; FIG. 3B", "procedure": "as §1, §2\nThe EPM consists of 2 opposing open arms and 2 opposing closed arms of the same size (45 cm×10 cm) with 10 cm high walls connected by a central platform (10×10 cm) and elevated 80 cm above the floor. Rats are positioned in the central platform facing a closed arm and the number of entries into, time spent on each arm, and central platform are measured.\nThe maze was systematically cleaned (Disposable towels and 70% ethanol solution) to remove olfactory cues, after each animal was tested. The shorter the time spent in open arms and central platform the higher the anxiety is and vice versa. Mean velocity and total distance moved were also measured and examined for every experimental group."}, "WAG/Rij rats [4]": {"tested_on": "WAG/Rij rats", "experiment": "Passive avoidance (PA)", "procedure": "as §1, §2\nRats were tested in a step-through type passive avoidance apparatus (Ugo Basile, Italy, model 40,550), measuring 57×27×30 cm, consisting of a cage divided into two chambers (light and dark) by a sliding door.\nThe PA test was carried out over two successive days. Briefly, on day one (pre-acquisition trial or habituation), rats were introduced individually in the light compartment and allowed to freely explore the cage for 5 min. The acquisition or conditioning trial was conducted 15 min after habituation. Rats were individually introduced in the light compartment.; following a 30 s adaptation time, the sliding door between the two compartments was opened. When rats completely entered into the dark compartment, the sliding door was automatically closed and an electrical foot-shock (0.5 mA for 3 s) was delivered via the floor grid.\nThe latency to enter (s) in the dark compartment was detected and analysed. The retention or memory trial was evaluated 24 h after the acquisition trial, by recording their latency to enter (s) in the dark compartment. The latency to enter in the dark compartment was directly linked to the retention memory: the better the memory, the greater the latency."}, "WAG/Rij rats [5]": {"tested_on": "WAG/Rij rats", "experiment": "Novel object recognition test (nORT)", "procedure": "as §1, §2\nThe nORT was performed as previously described by Bartolini et al. with some minor modifications. Briefly, three days before nORT, rats were exposed to a habituation trial lasting 6 min.\nDuring this trial, each rat was allowed to freely explore an opaque open field Plexiglas box (70×70×30 cm). To investigate short-term memory, in the familiarization trial (T1) two identical objects (wood cubes) were located in two opposite corners of the box. Each rat was placed in the centre of the open field, facing away from the sample objects and left to explore freely the objects for a maximum of 5 min, before returning to its home cage. The familiarization trial ended when the rat completed 20 s of exploration for each object.\nExploration was considered directing the nose at a distance <2 cm to the object and/or touching it with the nose and sniffing. After a retention interval of 60 min the test phase (T2) was conducted.\nAfter this session, the rat returned to home cage. The time spent exploring the familiar (F) and the novel object (N) was recorded separately and a discrimination index (DI) was calculated (DI=N−F/N+F). To avoid olfactory cues both the objects and the box were cleaned with 70% ethanol solution after each session.\nFurthermore, to avoid place preference, the role (familiar or novel object) and the position of the two objects during T2 were randomly changed. Total distance moved (cm) was also evaluated and analysed for every experimental group in order to check for locomotor deficits."}, "WAG/Rij rats [6]": {"tested_on": "WAG/Rij rats", "experiment": "Three chamber test (TCT), sociability", "procedure": "as §1, §2\nThree-chambered approach (sociability) is an automated, widely used and well validated assay that compares time that the subject (rodent) spends with a novel animal versus time spent with a non-social inanimate object.\nThe three-chamber apparatus is a non-transparent white plastic box with two transparent acrylic partitions with a rectangular opening. The acrylic partitions divide the box into three chambers (left, centre, and right), illuminated at 120 lux. The animal is placed in the middle chamber with the dividers closed to allow it to explore the middle chamber for ten minutes.\nAfter this habituation period, an unfamiliar adult animal is placed inside a small wire cage in one of the side chambers. An identical wire cage with an inanimate object is placed in the opposite chamber. The dividers are then raised, allowing the test subject to move freely throughout all three chambers of the apparatus over a 10-minute test session. […]"}, "WAG/Rij rats [7]": {"tested_on": "WAG/Rij rats", "experiment": "Rotarod test (RT)", "conditions": "10 and 100 mg/Kg; p=0.9455; data not shown", "procedure": "The Rotarod apparatus (Ugo Basile, Varese, Italy) consists of a base platform and a rotating rod with a diameter of 6 cm and a non-slippery surface. The integrity of motor coordination is assessed on the basis of the time the animals keep their balance on the accelerating rotating rod up to a maximum of 10 min (600 s).\nBriefly, rats were pre-trained for 2 days in order to reach a stable performance. After the training, the rotation of the rod was gradually accelerated from 5 rpm to 50 rpm. After a maximum of 3 falls from the rod, the test is suspended and the time is recorded, the result is a mean of the 3 measures."}},
  "data": [
    {"smiles": "C=C(C)[C@@H]1CCC(C)=C[C@H]1c1c(O)cc(CCCCC)cc1O", "note": "[sCBD, cannabidiol]", "values": [
      {"measurement": "mean number of spike wave discharges (nSWDs)", "setting": "WAG/Rij rats [1]", "value": "did not significantly (F4,45=2.572; p=0.0504; n=10 per group) alter"},
      {"measurement": "immobility time, overall", "setting": "WAG/Rij rats [2]; 10 and 100 mg/Kg, vs control (vehicle), ANOVA across groups, FIG. 3A", "value": "significantly (F4,45=12.29; p<0.0001; n=10 per group) reduce"},
      {"measurement": "immobility time", "setting": "WAG/Rij rats [2]; higher dose (100 mg/Kg i.p. twice daily)", "value": "significant reduction"},
      {"measurement": "immobility time", "setting": "WAG/Rij rats [2]; lower dose (10 mg/Kg i.p. twice daily)", "value": "not effective"},
      {"measurement": "anxiety-like behaviour", "setting": "WAG/Rij rats [3]", "value": "not affected"},
      {"measurement": "latency to enter in the dark compartment", "setting": "WAG/Rij rats [4]; conditioning trial, 10 and 100 mg/Kg, data not shown", "value": "no significant effect"},
      {"measurement": "latency to enter in the dark compartment", "setting": "WAG/Rij rats [4]; retention session, higher dose (100 mg/Kg), vs control", "value": "did not significantly modify"},
      {"measurement": "latency to enter in the dark compartment", "setting": "WAG/Rij rats [4]; retention session, lower dose (10 mg/Kg), vs control", "value": "did not significantly modify"},
      {"measurement": "discrimination index (DI)", "setting": "WAG/Rij rats [5]; 100 mg/Kg, vs vehicle", "value": "significantly increased"},
      {"measurement": "discrimination index (DI), overall", "setting": "WAG/Rij rats [5]; 10 and 100 mg/Kg, ANOVA across groups, FIG. 3D", "value": "significantly (F4,45=6.009; p=0.0006; n=10 per group) affect"},
      {"measurement": "discrimination index (DI)", "setting": "WAG/Rij rats [5]; lower dose (10 mg/Kg), vs control", "value": "did not significantly"},
      {"measurement": "time spent in the novel rat chamber vs the novel object chamber", "setting": "WAG/Rij rats [6]; 100 mg/Kg, sub-chronic", "value": "significantly more time in the novel rat chamber"},
      {"measurement": "time spent sniffing the novel rats", "setting": "WAG/Rij rats [6]; higher dose (100 mg/Kg), vs control rats, p<0.0001", "value": "significantly increased"},
      {"measurement": "rotarod test results (motor coordination)", "setting": "WAG/Rij rats [7]", "value": "did not influence"}
    ]}
  ]
}
